In PubChem BioAssay AID1963436 (Molecular Pharmacology Branch, DTP, NCI, 2024):

System: OVCAR-5 complex spheroid (HUVEC/MSC), viability % T/C
Experiment: Anticancer human tumor OVCAR-5 cell line growth inhibition [Asc];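 also: spheroids exposed to agents for 7 days before readout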;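 as to viability, T/C: 100% = DMSO vehicle-treated wells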
Conditions: for IC50: curve of first compound; for viability, T/C: stronger effect = lower value; active = viability on the fitted dose curve at most 10% of control; inactive = the rest
How it was run: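 Complex spheroids combining tumor cells with HUVEC endothelial cells and human MSCs, at 37 degrees C, 5% CO2; agents tested alone or combined, half-log dilutions from at or near clinical Cmax, or 10 microM if Cmax unknown.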

[1] = second compound 0.1 µM, first compound 0.0316 µM
[2] = second compound 0.1 µM, first compound 0.1 µM
[3] = second compound 0.1 µM, first compound 0.316 µM
[4] = second compound 0.1 µM, first compound 1 µM
[5] = second compound 0.1 µM, first compound 3.16 µM
[6] = second compound 0.1 µM, first compound 10 µM
[7] = second compound 0.316 µM, first compound 0.0316 µM
[8] = second compound 0.316 µM, first compound 0.1 µM
[9] = second compound 0.316 µM, first compound 0.316 µM
[10] = second compound 0.316 µM, first compound 1 µM
[11] = second compound 0.316 µM, first compound 3.16 µM
[12] = second compound 0.316 µM, first compound 10 µM
[13] = second compound 1 µM, first compound 0.0316 µM
[14] = second compound 1 µM, first compound 0.1 µM
[15] = second compound 1 µM, first compound 0.316 µM
[16] = second compound 1 µM, first compound 1 µM
[17] = second compound 1 µM, first compound 3.16 µM
[18] = second compound 1 µM, first compound 10 µM
[19] = second compound 3.16 µM, first compound 0.0316 µM
[20] = second compound 3.16 µM, first compound 0.1 µM
[21] = second compound 3.16 µM, first compound 0.316 µM
[22] = second compound 3.16 µM, first compound 1 µM
[23] = second compound 3.16 µM, first compound 3.16 µM
[24] = second compound 3.16 µM, first compound 10 µM
[25] = second compound 10 µM, first compound 0.0316 µM
[26] = second compound 10 µM, first compound 0.1 µM
[27] = second compound 10 µM, first compound 0.316 µM
[28] = second compound 10 µM, first compound 1 µM
[29] = second compound 10 µM, first compound 3.16 µM
[30] = second compound 10 µM, first compound 10 µM

C#Cc1c(F)ccc2cc(O)cc(-c3ncc4c(N5CC6CCC(C5)N6)nc(OCC56CCCN5CC(F)C6)nc4c3F)c12 (stereo not given) + Cc1c(S(C)(=O)=O)c(-c2cc(F)cc(N3CCN(c4ccc(NS(=O)(=O)c5ccc(NC(CCN6CCC(C(=O)OCCCP(=O)(O)O)CC6)CSc6ccccc6)c(S(=O)(=O)C(F)(F)F)c5)cc4)CC3)c2)c(-c2ccc(Cl)cc2)n1C(C)C
3720 nM: IC50 (second compound 1 µM)
inactive: viability, T/C [1] 96.7% | viability, T/C [2] 107% | viability, T/C [3] 102% | viability, T/C [4] 78.7% | viability, T/C [5] 69.3% | viability, T/C [6] 30.3% | viability, T/C [7] 91.8% | viability, T/C [8] 98.2% | viability, T/C [9] 87.2% | viability, T/C [10] 80.1% | viability, T/C [11] 61.1% | viability, T/C [12] 24.5% | viability, T/C [13] 89.7% | viability, T/C [14] 107% | viability, T/C [15] 90.1% | viability, T/C [16] 75.9% | viability, T/C [17] 56.3% | viability, T/C [18] 21.7% | viability, T/C [19] 84.9% | viability, T/C [20] 99.9% | viability, T/C [21] 96.1% | viability, T/C [22] 69% | viability, T/C [23] 49.8% | viability, T/C [24] 12.9% | viability, T/C [25] 133% | viability, T/C [26] 116% | viability, T/C [27] 118% | viability, T/C [28] 88.5% | viability, T/C [29] 56.6% | viability, T/C [30] 12.7%
5340 nM: IC50 (second compound 0.1 µM)
2810 nM: IC50 (second compound 3.16 µM)
3730 nM: IC50 (second compound 10 µM)
4450 nM: IC50 (second compound 0.316 µM)

C=C(F)C(=O)N1CCN(c2nc(OCC3CCCN3C)nc3c2CCN(c2cccc4cccc(Cl)c24)C3)CC1CC#N (stereo not given) + Cc1c(S(C)(=O)=O)c(-c2cc(F)cc(N3CCN(c4ccc(NS(=O)(=O)c5ccc(NC(CCN6CCC(C(=O)OCCCP(=O)(O)O)CC6)CSc6ccccc6)c(S(=O)(=O)C(F)(F)F)c5)cc4)CC3)c2)c(-c2ccc(Cl)cc2)n1C(C)C
561 nM: IC50 (second compound 3.16 µM)
587 nM: IC50 (second compound 0.316 µM)
649 nM: IC50 (second compound 1 µM)
inactive: viability, T/C [1] 88.7% | viability, T/C [2] 96.8% | viability, T/C [3] 79.9% | viability, T/C [4] 43.7% | viability, T/C [7] 93.5% | viability, T/C [8] 98% | viability, T/C [9] 78.3% | viability, T/C [10] 25.4% | viability, T/C [13] 81.5% | viability, T/C [14] 89% | viability, T/C [15] 83.3% | viability, T/C [16] 29.9% | viability, T/C [19] 90% | viability, T/C [20] 92.3% | viability, T/C [21] 80.1% | viability, T/C [22] 19.6% | viability, T/C [25] 111% | viability, T/C [26] 131% | viability, T/C [27] 106% | viability, T/C [28] 15.1%
active: viability, T/C [5] 1.2% | viability, T/C [6] 0.31% | viability, T/C [11] 1.91% | viability, T/C [12] 0.12% | viability, T/C [17] 0.65% | viability, T/C [18] 0.74% | viability, T/C [23] 0.82% | viability, T/C [24] 0.14% | viability, T/C [29] 0.46% | viability, T/C [30] 0.21%
799 nM: IC50 (second compound 0.1 µM)
643 nM: IC50 (second compound 10 µM)
